SMILES strings stand for the structures. Active and inactive are the calls of the source. No rule for the calls is given here.

These results are taken from PubChem BioAssay AID1966 (Sanford-Burnham Center for Chemical Genomics, 2009).

In this assay the target is Beta-galactosidase (Escherichia coli) (UniProt Q8VNN2). The assay can be described thus: inhibitors of purified bacterial beta-gal – biochemical, counter-screen, dose response (AID 1966). The note with it: purified E. coli beta-galactosidase enzyme activity. (In general: The purpose of a counterscreen is to sort out artefacts and off-target activity.)
Sequence of Beta-galactosidase (Escherichia coli) (Q8VNN2 whole entry, looked up): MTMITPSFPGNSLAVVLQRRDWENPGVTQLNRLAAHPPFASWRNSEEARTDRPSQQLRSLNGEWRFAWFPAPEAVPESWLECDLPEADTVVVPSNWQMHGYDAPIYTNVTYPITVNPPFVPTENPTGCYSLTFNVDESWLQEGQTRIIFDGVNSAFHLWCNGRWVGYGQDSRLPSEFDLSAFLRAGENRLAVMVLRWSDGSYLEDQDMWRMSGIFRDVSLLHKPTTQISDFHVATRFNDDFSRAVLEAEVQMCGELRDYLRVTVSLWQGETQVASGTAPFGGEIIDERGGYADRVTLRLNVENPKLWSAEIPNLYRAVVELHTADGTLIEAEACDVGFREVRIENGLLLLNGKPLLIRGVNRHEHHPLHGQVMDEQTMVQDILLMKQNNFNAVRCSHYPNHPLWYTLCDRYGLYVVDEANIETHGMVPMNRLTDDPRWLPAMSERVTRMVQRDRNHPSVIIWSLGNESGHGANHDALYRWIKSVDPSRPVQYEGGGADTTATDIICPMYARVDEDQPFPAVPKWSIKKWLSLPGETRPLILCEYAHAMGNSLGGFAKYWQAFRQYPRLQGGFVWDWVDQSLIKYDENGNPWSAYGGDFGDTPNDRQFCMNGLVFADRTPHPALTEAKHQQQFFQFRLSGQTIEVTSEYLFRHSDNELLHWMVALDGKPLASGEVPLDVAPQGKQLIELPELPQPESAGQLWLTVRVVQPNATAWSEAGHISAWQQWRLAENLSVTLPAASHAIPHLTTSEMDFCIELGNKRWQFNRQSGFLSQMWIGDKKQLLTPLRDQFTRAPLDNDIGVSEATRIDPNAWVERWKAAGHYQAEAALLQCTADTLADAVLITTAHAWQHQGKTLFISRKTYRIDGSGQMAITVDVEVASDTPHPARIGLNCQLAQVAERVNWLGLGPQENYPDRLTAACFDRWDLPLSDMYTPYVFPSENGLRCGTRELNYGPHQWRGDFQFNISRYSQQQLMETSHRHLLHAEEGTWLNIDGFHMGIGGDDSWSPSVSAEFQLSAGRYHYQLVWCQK

As to `CCNC(=O)C1CCCN1C(=O)C(CCCN=C(N)N)NC(=O)C(CC(C)C)NC(=O)C(Cc1cn(Cc2ccccc2)cn1)NC(=O)C(Cc1ccc(O)cc1)NC(=O)C(CO)NC(=O)C(Cc1c[nH]c2ccccc12)NC(=O)C(Cc1cnc[nH]1)NC(=O)C1CCC(=O)N1` (stereo unspecified), the IC50 was > 31.5 µM (inactive).

As usually defined, the IC50 is the concentration needed to halve the response being measured.
